# Results reported in ChEMBL document CHEMBL6109124, “Identification of effective anti-osteosarcoma agents via screening of an in-house NQO1-targeted compound library” (Bioorg Med Chem, 2025).
# Legend:
# [1] = Cytotoxicity against HUVEC assessed as cell growth inhibition measured after 72 hrs by MTT assay; format: toxicity, cell-based; conditions: human, HUVEC cells
# HOS-TE85 [2] = test: Cytotoxicity against human MNNG cells assessed as cell growth inhibition at 10 uM measured after 72 hrs by MTT assay relative to control; format: functional; conditions: read-out: GI
# HOS-TE85 [3] = test: Cytotoxicity against human MNNG cells assessed as cell growth inhibition at 1 uM measured after 72 hrs by MTT assay relative to control; format: functional; conditions: read-out: GI
# [4] = Selectivity index, ratio of IC50 for cytotoxicity against HUVEC to IC50 for cytotoxicity against human MNNG cells; format: toxicity, cell-based; conditions: HUVEC and human MNNG cells, read-out: Ratio IC50
# HOS-TE85 [5] = test: Cytotoxicity against human MNNG cells assessed as cell growth inhibition measured after 72 hrs by MTT assay; format: functional, cell-based; conditions: HOS-TE85, 72 h
smiles,measurement,setting,value
Cc1ccc2c(c1)-c1nc(C#N)c(C#N)nc1C2=O,IC50 at 72 h,[1],3850 nM
same,inhibition of growth at 10 µM,HOS-TE85 [2],99.9%
same,inhibition of growth at 1 µM,HOS-TE85 [3],35.4%
same,selectivity ratio,[4],2.08
same,IC50,HOS-TE85 [5],1850 nM
